The target in assay [1] is T1, Cannabinoid receptor 2 (Homo sapiens, UniProt P34972). The experiment in a line: Agonist activity at human CB2 receptor expressed in CHO cells assessed as inhibition of forskolin-stimulated intracellular cAMP accumulation measured after 30 mins by Glosensor assay. It counts as functional, cell-based.
Assay [2] deals with T2, Cannabinoid receptor 1 (Homo sapiens, UniProt P21554). Description: Agonist activity at human CB1 receptor expressed in CHO cells assessed as inhibition of forskolin-stimulated intracellular cAMP accumulation measured after 30 mins by Glosensor assay. It counts as cell-based.
Assay [3] concerns the target T1, Cannabinoid receptor 2. The experiment in a line: Agonist activity at human CB2 receptor expressed in CHO cells assessed as inhibition of forskolin-stimulated intracellular cAMP accumulation measured after 30 mins by Glosensor assay relative to control. Type of assay: functional, cell-based. As to conditions: filed as agonist. (In general: Cyclic AMP is a second messenger, typically raised through Gs and lowered through Gi signalling.)

The species entered for the next assay is Homo sapiens. Description: Selectivity ratio of EC50 for agonist activity at human CB1 receptor expressed in CHO cells to EC50 for agonist activity at human CB2 receptor expressed in CHO cells. It counts as cell-based.
Assay [4] deals with T1, Cannabinoid receptor 2. The experiment in a line: Inverse agonist activity at human CB2 receptor expressed in CHO cells assessed as forskolin-stimulated intracellular cAMP accumulation measured after 30 mins by Glosensor assay. It counts as functional, cell-based.
Assay [5] deals with T2, Cannabinoid receptor 1. Description: Inverse agonist activity at human CB1 receptor expressed in CHO cells assessed as forskolin-stimulated intracellular cAMP accumulation measured after 30 mins by Glosensor assay. Type of assay: cell-based.

Results on 42 molecules are retold here after ChEMBL document CHEMBL5344413, “Discovery of 4-(1,2,4-Oxadiazol-5-yl)azepan-2-one Derivatives as a New Class of Cannabinoid Type 2 Receptor Agonists for the Treatment of Inflammatory Pain” (J Med Chem, 2023).

Bounds are passed on as bounds.

T1 sequence (P34972 whole entry): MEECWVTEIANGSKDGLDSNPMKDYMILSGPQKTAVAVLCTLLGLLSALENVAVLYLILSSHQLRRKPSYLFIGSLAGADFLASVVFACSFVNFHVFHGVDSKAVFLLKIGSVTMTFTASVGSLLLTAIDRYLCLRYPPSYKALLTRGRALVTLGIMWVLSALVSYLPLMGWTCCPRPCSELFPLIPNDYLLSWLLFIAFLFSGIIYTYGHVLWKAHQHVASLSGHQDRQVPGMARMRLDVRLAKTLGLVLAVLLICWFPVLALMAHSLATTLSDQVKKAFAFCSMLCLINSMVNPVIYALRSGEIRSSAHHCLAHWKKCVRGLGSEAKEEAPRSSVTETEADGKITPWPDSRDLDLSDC
T2 sequence (P21554 whole entry): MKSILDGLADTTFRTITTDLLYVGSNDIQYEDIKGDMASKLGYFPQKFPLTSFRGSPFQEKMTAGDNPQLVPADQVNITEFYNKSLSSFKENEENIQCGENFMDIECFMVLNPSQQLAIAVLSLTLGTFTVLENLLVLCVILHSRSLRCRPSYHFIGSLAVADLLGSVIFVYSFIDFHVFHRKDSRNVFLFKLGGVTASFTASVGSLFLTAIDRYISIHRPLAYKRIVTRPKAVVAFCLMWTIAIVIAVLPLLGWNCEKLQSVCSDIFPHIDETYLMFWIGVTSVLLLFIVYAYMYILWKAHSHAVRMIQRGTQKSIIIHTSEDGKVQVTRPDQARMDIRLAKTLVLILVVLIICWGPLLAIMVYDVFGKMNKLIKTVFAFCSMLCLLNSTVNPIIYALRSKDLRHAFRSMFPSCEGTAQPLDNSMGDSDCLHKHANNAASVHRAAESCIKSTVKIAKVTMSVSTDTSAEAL

Consider `O=C1C=C(c2nc(-c3ccccc3)no2)CCCN1c1ccc(F)cc1`, for which the half-maximal effective concentration (EC50) at Cannabinoid receptor 2 [1] and on Cannabinoid receptor 1 [2] was greater than 10 µM each time.
With `Cc1ccc(N2CCCC(c3nc(-c4ccc(F)c5cn[nH]c45)no3)CC2=O)cc1` (centres undefined), the figures for the concentration giving a half-maximal response (EC50) at Cannabinoid receptor 2 [1] and on Cannabinoid receptor 1 [2] were 1.35 µM and greater than 10 µM, respectively. Besides, the Emax (usually the greatest response seen or fitted, relative to the assay's reference) on Cannabinoid receptor 2 [3] was determined as 82%.
The matching figures for `O=C1CC(c2nc(-c3cccc(F)c3)no2)CCCN1c1ccc(F)cc1` (centres undefined): 2.12 µM, greater than 10 µM and 97%.
Turning to `O=C1CC(c2nc(-c3ccccc3)no2)CCCN1c1ccc(F)cc1` (centres undefined), the EC50 (as a rule, the concentration that produces a half-maximal response) on Cannabinoid receptor 2 [1] is 2.81 µM; on Cannabinoid receptor 1 [2], greater than 30 µM. The Emax on Cannabinoid receptor 2 [3] was determined as 78%. Also, the Ratio EC50 in the assay filed under Homo sapiens is greater than 10.
As for `O=C1CC(c2nc(-c3ccc(F)c4cn[nH]c34)no2)CCCN1c1cccc(F)c1F` (centres undefined), the half-maximal effective concentration (EC50) at Cannabinoid receptor 2 [1] was 0.332 µM; at Cannabinoid receptor 1 [2] it was greater than 10 µM. Besides, the maximal effect (Emax) at Cannabinoid receptor 2 [3] stood at 92%.
With `O=C1CC(c2nc(Cc3cccc(F)c3)no2)CCCN1c1ccc(F)cc1` (centres undefined), the EC50 at Cannabinoid receptor 2 [1] and on Cannabinoid receptor 1 [2] was greater than 10 µM in each case.
Turning to `O=C1CC(c2nc(-c3ccc(F)c4ccccc34)no2)CCCN1c1ccc(F)cc1` (centres undefined), the half-maximal effective concentration (EC50) on Cannabinoid receptor 2 [1] is 1.21 µM; on Cannabinoid receptor 1 [2] it was greater than 10 µM. On Cannabinoid receptor 2 [3], the Emax came out at 97%.
As to `Cc1cc(F)ccc1-c1noc(C2CCCN(c3ccc(F)cc3)C(=O)C2)n1` (centres undefined), the EC50 on Cannabinoid receptor 2 [1] was 3.3 µM; on Cannabinoid receptor 1 [2], greater than 10 µM.
For the molecule `COc1cc(F)ccc1-c1noc(C2CCCN(c3ccc(F)cc3)C(=O)C2)n1` (centres undefined), the EC50 is 0.445 µM at Cannabinoid receptor 2 [1] and greater than 10 µM at Cannabinoid receptor 1 [2]. In addition, the maximal effect (Emax) on Cannabinoid receptor 2 [3] came out at 91%.
The matching figures for `O=C1CC(c2nc(-c3ccc(F)c4cn[nH]c34)no2)CCCN1c1cccc(F)c1` (centres undefined): 1.31 µM, greater than 10 µM and 79%.
Turning to `O=C1CC(c2nc(-c3ccc(F)c4cc[nH]c34)no2)CCCN1c1ccc(F)cc1` (centres undefined), the results for the EC50 at Cannabinoid receptor 2 [1] and at Cannabinoid receptor 1 [2] were 0.449 µM and greater than 10 µM, respectively. Further, the Emax at Cannabinoid receptor 2 [3] was 123%.
On to `O=C1CC(c2nc(Cc3ccc(F)cc3)no2)CCCN1c1ccc(F)cc1` (centres undefined), for which the concentration for a half-maximal effect (EC50) on Cannabinoid receptor 2 [1] and at Cannabinoid receptor 1 [2] was greater than 10 µM throughout.
As to `Fc1ccc(Nc2ccc(-c3nc(-c4ccccc4)no3)cc2)cc1`, the EC50 on Cannabinoid receptor 2 [1] and on Cannabinoid receptor 1 [2] was greater than 10 µM throughout.
On to `O=C1CC(c2nc(-c3ccc(F)c4cn[nH]c34)no2)CCCN1c1ccc(F)c(F)c1` (centres undefined), for which the results for the half-maximal effective concentration (EC50) on Cannabinoid receptor 2 [1] and on Cannabinoid receptor 1 [2] were 0.318 µM and greater than 10 µM, respectively. At Cannabinoid receptor 2 [3], the maximal response (Emax) came to 81%.
For the molecule `O=C1CC(c2nc(-c3ccc(F)c4cn[nH]c34)no2)CCCN1c1ccccc1F` (centres undefined), the values for the concentration giving a half-maximal response (EC50) on Cannabinoid receptor 2 [1] and at Cannabinoid receptor 1 [2] were 0.0454 µM and greater than 10 µM, respectively. Besides, on Cannabinoid receptor 2 [3], the Emax was determined as 93%.
For the molecule `O=C1CC(c2nc(-c3ccc(F)cn3)no2)CCCN1c1ccc(F)cc1` (centres undefined), the concentration giving a half-maximal response (EC50) at Cannabinoid receptor 2 [1] and on Cannabinoid receptor 1 [2] was greater than 10 µM throughout.
Turning to `O=C1CC(c2nc(-c3ccc(F)cc3)no2)CCCN1c1ccc(F)cc1` (centres undefined), the values for the EC50 on Cannabinoid receptor 2 [1] and at Cannabinoid receptor 1 [2] were 1.39 µM and greater than 10 µM, respectively. Also, the Emax on Cannabinoid receptor 2 [3] came to 91%.
In the case of `O=C1CC(c2nc(-c3ccc(F)c4cn[nH]c34)no2)CCCN1c1ccc(F)cc1F` (centres undefined), the EC50 is 0.11 µM on Cannabinoid receptor 2 [1] and greater than 10 µM at Cannabinoid receptor 1 [2]. The Emax at Cannabinoid receptor 2 [3] stood at 100%.
With `O=C1CC(c2nc(-c3ccc(Cl)cc3)no2)CCCN1c1ccc(F)cc1` (centres undefined), the EC50 on Cannabinoid receptor 2 [1] and at Cannabinoid receptor 1 [2] was greater than 10 µM each time.
For the molecule `O=C1CC(c2nc(-c3ccccc3F)no2)CCCN1c1ccc(F)cc1` (centres undefined), the half-maximal effective concentration (EC50) on Cannabinoid receptor 2 [1] and at Cannabinoid receptor 1 [2] was greater than 10 µM each time.
Take `O=C(c1ccc(F)cc1)N1CC(c2nc(-c3ccccc3)no2)C1`: the EC50 at Cannabinoid receptor 2 [1] and at Cannabinoid receptor 1 [2] was greater than 10 µM in each case.
For the molecule `Fc1ccc(Nc2cccc(-c3nc(-c4ccccc4)no3)c2)cc1`, the EC50 at Cannabinoid receptor 2 [1] and at Cannabinoid receptor 1 [2] was greater than 10 µM throughout.
As for `O=C1CC(c2nc(-c3ccc(F)cc3C(F)(F)F)no2)CCCN1c1ccc(F)cc1` (centres undefined), the EC50 at Cannabinoid receptor 2 [1] and on Cannabinoid receptor 1 [2] was greater than 10 µM in each case.
In the case of `O=C1CC(c2nc(Cc3ccccc3)no2)CCCN1c1ccc(F)cc1` (centres undefined), the EC50 on Cannabinoid receptor 2 [1] and at Cannabinoid receptor 1 [2] was greater than 10 µM in each case.
As for `O=C1C[C@H](c2nc(-c3ccc(F)c4cn[nH]c34)no2)CCCN1c1ccc(F)cc1`, the EC50 is 0.0348 µM on Cannabinoid receptor 2 [1] and greater than 30 µM on Cannabinoid receptor 1 [2]. Also, the Emax at Cannabinoid receptor 2 [3] came to 102%.
For `O=C1CC(c2nc(-c3ccc(F)c4cn[nH]c34)no2)CCCN1c1ccc(OC(F)(F)F)cc1` (centres undefined) the same measures were 2.05 µM, greater than 10 µM and 74%.
Regarding `CN1CCCC(c2nc(-c3ccc(F)c4cn[nH]c34)no2)CC1=O` (centres undefined), the concentration for a half-maximal effect (EC50) at Cannabinoid receptor 2 [1] and on Cannabinoid receptor 1 [2] was greater than 10 µM throughout.
For the molecule `O=C(c1ccc(F)cc1)N1CC2(CC(c3nc(-c4ccccc4)no3)C2)C1`, the EC50 at Cannabinoid receptor 2 [1] and on Cannabinoid receptor 1 [2] was greater than 10 µM each time.
On to `COc1ccc(N2CCCC(c3nc(-c4ccc(F)c5cn[nH]c45)no3)CC2=O)cc1` (centres undefined), for which the EC50 on Cannabinoid receptor 2 [1] is 1.21 µM; on Cannabinoid receptor 1 [2], greater than 10 µM. Moreover, the maximum response (Emax) on Cannabinoid receptor 2 [3] worked out at 101%.
Take `O=C1CC(c2nc(-c3ccc(F)cc3Cl)no2)CCCN1c1ccc(F)cc1` (centres undefined): the half-maximal effective concentration (EC50) on Cannabinoid receptor 2 [1] and on Cannabinoid receptor 1 [2] was greater than 10 µM throughout.
`O=C1CC(c2nc(-c3ccncc3)no2)CCCN1c1ccc(F)cc1` (centres undefined): the concentration giving a half-maximal response (EC50) at Cannabinoid receptor 2 [1] and on Cannabinoid receptor 1 [2] was greater than 10 µM throughout.
`CC(=O)c1ccc(N2CCCC(c3nc(-c4ccc(F)c5cn[nH]c45)no3)CC2=O)cc1` (centres undefined): the EC50 at Cannabinoid receptor 2 [1] and on Cannabinoid receptor 1 [2] was greater than 10 µM throughout.
Turning to `O=C1CC(c2nc(-c3ccc(F)c4cn[nH]c34)no2)CCCN1c1ccccc1` (centres undefined), the concentration giving a half-maximal response (EC50) on Cannabinoid receptor 2 [1] is 0.3 µM; on Cannabinoid receptor 1 [2], greater than 10 µM. For the same molecule, the maximal response (Emax) at Cannabinoid receptor 2 [3] worked out at 88%.
Regarding `O=C(NCCc1nc(-c2ccccc2)no1)c1ccc(F)cc1`, the half-maximal effective concentration (EC50) on Cannabinoid receptor 1 [2] and on Cannabinoid receptor 2 [4] was greater than 10 µM throughout.
Consider `O=C1CC(c2nc(-c3ccc(F)cc3F)no2)CCCN1c1ccc(F)cc1` (centres undefined), for which the 50% effective concentration (EC50) on Cannabinoid receptor 2 [1] and at Cannabinoid receptor 1 [2] was greater than 10 µM in each case.
Turning to `O=C1C[C@@H](c2nc(-c3ccc(F)c4cn[nH]c34)no2)CCCN1c1ccc(F)cc1`, the EC50 on Cannabinoid receptor 2 [1] is 0.0587 µM; on Cannabinoid receptor 1 [2], greater than 30 µM. In addition, the maximal response (Emax) on Cannabinoid receptor 2 [3] is 80%.
For the molecule `O=C(c1ccc(F)cc1)N1CCC(c2nc(-c3ccccc3)no2)CC1`, the EC50 at Cannabinoid receptor 2 [1] and on Cannabinoid receptor 1 [2] was greater than 10 µM throughout.
With `O=C1CC(c2nc(-c3ccc(F)c4cn[nH]c34)no2)CCCN1c1cc(F)c(F)c(F)c1` (centres undefined), the EC50 on Cannabinoid receptor 2 [1] is 0.338 µM; on Cannabinoid receptor 1 [5], greater than 10 µM. Also, the Emax on Cannabinoid receptor 2 [3] turned out to be 102%.
With `O=C1CC(c2nc(Cc3ccccc3F)no2)CCCN1c1ccc(F)cc1` (centres undefined), the EC50 on Cannabinoid receptor 2 [1] and on Cannabinoid receptor 1 [2] was greater than 10 µM each time.
As to `O=C1CC(c2nc(-c3ccccc3)no2)CCN1c1ccc(F)cc1` (centres undefined), the concentration for a half-maximal effect (EC50) at Cannabinoid receptor 2 [1] and on Cannabinoid receptor 1 [2] was greater than 10 µM in each case.
On to `O=C1CC(c2nc(-c3ccc(F)c4cn[nH]c34)no2)CCCN1c1ccc(Cl)cc1` (centres undefined), for which the concentration giving a half-maximal response (EC50) at Cannabinoid receptor 2 [1] is 0.805 µM; on Cannabinoid receptor 1 [2] it was greater than 10 µM. Further, the maximal effect (Emax) on Cannabinoid receptor 2 [3] was determined as 112%.
For the molecule `O=C1CC(c2nc(-c3ccc(F)c4cn[nH]c34)no2)CCCN1c1ccc(C(F)(F)F)cc1` (centres undefined), the 50% effective concentration (EC50) at Cannabinoid receptor 2 [1] and on Cannabinoid receptor 1 [2] was greater than 10 µM in each case.
